Active and inactive are the calls of the source. No cut-off for these calls is given here.

The test system of this assay is Haemophilus influenzae. In words: Antibacterial activity against gram-negative bacteria, Haemophilus influenzae; A - found to be active. The format is functional, organism-based.

Regarding `CC[C@H]1OC(=O)[C@H](C)[C@@H](O[C@H]2C[C@@](C)(OC)[C@@H](O)[C@H](C)O2)[C@H](C)[C@@H](O[C@@H]2O[C@H](C)C[C@H](N(C)C)[C@H]2O)[C@@](C)(O)C[C@@H](C)[C@@H]2O[C@]1(C)[C@@H](N)[C@H]2C`, the result was Active.

The record behind these values is ChEMBL document CHEMBL1128652, “Synthesis of the macrolide antibiotic, oxolide” (Bioorg Med Chem Lett, 1995).
